According to US9840532B2, “5′-substituted nucleoside compounds” (Eli Lilly and Company, priority 2015, dated 2017):

Test system: PRMT5-mediated retention of exon 6 in the processed MDM4 mRNA in A375 tumor cells
Assay: Mouse A375 Xenograft Tumor MDM4 Exon5/6 RNA Splicing Assay
Type: in vivo
Conditions: A-375, PO given QD or BID, tumors 4 hr after last dose, 4 days of dosing, read-out: dose achieving 50% effect (ED50)
Description: The purpose of this assay is to measure the ability of a test compound to inhibit PRMT5-mediated retention of exon 6 in the processed MDM4 mRNA in A375 tumor cells in a mouse tumor xenograft model. This assay represents the effect of a test compound on specific PRMT5-mediated splicing events in tumors in an animal model.
Grow A375 cells in medium (DMEM high glucose/10% Hi FBS) at 37° C. in an incubator (5% CO2) for 18-24 hr. Mix the cells with MATRIGEL® (1:1) and implant the cells (5×10^6/animal) subcutaneously into the rear flank of the mice (female nude mice, Harlan). The implanted tumor cells grow as solid tumors. Measure the tumor volume and body weight twice a week with a caliper. After tumor volume reaches approximately 200-250 mm^3 (about 20 days after implant), randomize the animals, and group them into compound treatment groups. Administer the test compounds (formulated in SWFI with 1% HEC/0.25% TWEEN® 80/0.05% Antifoam) by oral gavage. Test compound doses are in the range of 3 to 100 mg/kg. Sacrifice mice 4 hr after the last dose (4 days of dosing).
Harvest tumor tissues and homogenize as described below. Place tumor samples in a bowl and add 1 mL of liquid N2. Squash the tumor in the bowl. Transfer small pieces of tumor (about 20 mg each) into 2 lysing matrix D tubes (MPBIO cat. #6913-250). Use one tube for RNA processing and the other for protein lysate preparation. For RNA processing, homogenize the tumor tissues in an RNEASY® Mini Kit (QIAGEN-74104) extraction buffer (0.5 mL each) for 30 seconds using a Bio101 FastPrep FP120 homogenizer (setting 6). Total RNA is purified with QUARTZY® RNEASY® Mini Kit −50 (QIAGEN-74104, RNEASY® Mini Handbook, Fourth Edition, June 2012). Check the RNA concentration to ensure OD 260/280 […]≧1.9. For cDNA synthesis use A&B APPLIED BIOSYSTEMS®, High Capacity cDNA Reverse Transcription Kit (cat. #4368813). Use 1 μg total RNA (10 μL) in each RT reaction volume of 20 μL, containing 10×RT Buffer—2.0 μL; 25×dNTP Mix (100 mM)—0.8 μL; 10×RT Random Primers—2.0 μL; MULTISCRIBE™ Reverse Transcriptase—1.0 μL; Nuclease-free H2O—[…]. […]

Nc1ncnc2c1ccn2[C@@H]1O[C@H]([C@H](O)c2ccc(Cl)cc2)[C@@H](O)[C@H]1O [Example 1, (2R,3R,4S,5R)-2-(4-Aminopyrrolo[2,3-d]pyrimidin-7-yl)-5-[(R)-(4-chlorophenyl)-hydroxy-methyl]tetrahydrofuran-3,4-diol]
ED50: ≤ 30 mg/kg

Nc1ncnc2c1ccn2[C@@H]1O[C@H]([C@H](O)c2ccccc2)[C@@H](O)[C@H]1O [Example 2, (2R,3R,4S,5R)-2-(4-Aminopyrrolo[2,3-d]pyrimidin-7-yl)-5[(R)-hydroxy(phenyl)methyl]tetrahydrofuran-3,4-diol]
ED50: ≤ 30 mg/kg

C[C@@](O)(c1ccc(Cl)cc1)[C@H]1O[C@@H](n2ccc3c(N)ncnc32)[C@H](O)[C@@H]1O [Example 3, (2R,3R,4S,5S)-2-(4-Aminopyrrolo[2,3-d]pyrimidin-7-yl)-5-[(1R)-1-(4-chlorophenyl)-1-hydroxy-ethyl]tetrahydrofuran-3,4-diol]
ED50: ≤ 30 mg/kg
